Data as given in EP0699675A2, “3-(4-(1-Substituted-4-piperazinyl)butyl)-4-thiazolidinone and related compounds” (HOECHST-ROUSSEL PHARMACEUTICALS INCORPORATED, priority 1994, dated 1996).
Structures can show the parent of a compound that is named as a salt.

Test system: CK-1 male mice
Experiment: climbing mice assay (apomorphine-induced climbing), antipsychotic activity
Type: in vivo
Conditions: 30 minutes prior to apomorphine 1.5 mg/kg subcutaneously, climbing scores totaled over readings at 10, 20 and 30 minutes, control group set to 100%
Description: Antipsychotic activity is determined in the climbing mice assay by methods similar to those described by P. Protais, et al., Psychopharmacol., 50, 1 (1976) and B. Costall, Eur. J. Pharmacol., 50, 39 (1978).
The subject CK-1 male mice (23-27 grams) are group-housed under standard laboratory conditions. The mice are individually placed in wire mesh stick cages (4" x 4" by 10") and are allowed one hour for adaptation and exploration of the new environment. Then apomorphine is injected subcutaneously at 1.5 mg/kg, a dose causing climbing in all subjects for 30 minutes. Compounds to be tested for antipsychotic activity are injected intraperitoneally 30 minutes prior to the apomorphine challenge at a screening dose of 10mg/kg.
For evaluation of climbing, 3 readings are taken at 10,20 and 30 minutes after apomorphine administration according to the following scale:
Mice consistently climbing before the injection of apomorphine are discarded.
With full-developed apomporphine climbing, the animals are hanging onto the cage walls, rather motionless, over longer periods of time. By contrast, climbs due to mere motor stimulation usually last only a few seconds.
The climbing scores are individually totaled (maximum score: 6 per mouse over 3 readings) and the total score of the control group (vehicle intraperitoneally-apomorphine subcutaneously) is set to 100%. ED₅₀ value with 95% confidence limits, calculated by a linear regression analysis of some of the compounds of this invention.

| SMILES | Antipsychotic Activity Score (Dose 9.5 mg/kg ip) [%] | Antipsychotic Activity Score (Dose 20 mg/kg ip) [%] |
| --- | --- | --- |
| CC1SC(C)(C)C(=O)N1CCCCN1CCC(c2csc3ccccc23)CC1.O=C(O)/C=C\C(=O)O (stereo not drawn) [3-[4-[4-(Benzo[b]thien-3-yl)-1-piperidinyl]butyl]-2,5,5-trimethyl-4-thiazolidinone maleate] | 50 |  |
| CC1SC(C)(C)C(=O)N1CCCCN1CCC(c2cc3ccccc3s2)CC1 (stereo not drawn) [3-[4-[4-[Benzo[b]thien-2yl)-1-piperidinyl[butyl]-2,5,5-trimethyl-4-thiazolidinone hydrochloride] |  | 44 |
| CC1(C)C(=O)N(CCCCN2CCC(c3csc4ccccc34)CC2)CS1(=O)=O [3-[4-[4-[Benzo[b]thien-3-yl)-1-piperidinyl]butyl]-5,5-dimethyl-1,1-dioxo-4-thiazolidinone] |  | 98 |
